Literature values, collected in patent US20150086616A1, “METHOD FOR THE PREVENTION AND TREATMENT OF ALZHEIMER'S DISEASE” (priority 2013, published 2015).

Key:
Alzheimer's disease = conditions: for efficacy of oral NSAID as treatment of Alzheimer's disease: oral administration
[1] = after multiple oral doses of ibuprofen
[2] = highly lipophilic drugs
[3] = ophthalmic

Row | crossing of the blood brain barrier [2] | SMILES | direct cyclooxygenase inhibition (cyclooxygenase) | efficacy of oral NSAID as treatment of Alzheimer's disease (Alzheimer's disease) | also measured
1 |  | C[C@@H](C(=O)O)c1ccc(-c2ccccc2)c(F)c1 [R-flurbiprofen] | devoid of any direct cyclooxygenase inhibition |  | phase III clinical trial for the treatment of Alzheimer's disease (Alzheimer's disease; phase III clinical trial): failed
2 | readily cross the blood brain barrier | CC(C)Cc1ccc(C(C)C(=O)O)cc1 (stereo not drawn) [ibuprofen] |  | not an effective treatment | brain concentration [1]: 0.4 µg/g; concentration in fat [1]: 58.4 μg/g tissue
3 | readily cross the blood brain barrier | O=C(O)Cc1ccccc1Nc1c(Cl)cccc1Cl [diclofenac] |  |  | anti-inflammatory action compared with flurbiprofen [3]: more anti-inflammatory action; burning sensation compared with flurbiprofen [3]: less burning sensation
4 | readily cross the blood brain barrier | CC(C(=O)O)c1ccc(-c2ccccc2)c(F)c1 (stereo not drawn) [flurbiprofen] |  | not an effective treatment | 
5 |  | C[C@H](C(=O)O)c1ccc(-c2ccccc2)c(F)c1 (single isomer, unassigned) [S-enantiomer of flurbiprofen] | is a cyclooxygenase inhibitor |  | 
